Laboratory results: patent US10662193B2, “Carbazole and carboline compounds for use in the diagnosis, treatment, alleviation or prevention of disorders associated with amyloid or amyloid-like proteins” (AC IMMUNE SA, priority 2014, dated 2020)

Tests used:
[1] = tested on: Aβ plaques on AD brain section; experiment: Assay 1: displacement of Compound B on human AD brain sections (fluorescence); format: binding
Summary of the method: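 Frozen […] amygdala sections from Braak V-VI AD donors were preincubated with test compound at 250 μM in 50% ethanol for 20 min at room temperature, then with fluorescent Compound B at 1 μM for 20 min. Staining read at 365 nm excitation; plaques quantified by image analysis.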

[2] = tested on: tau tangles/Aβ plaques on AD brain sections; experiment: Assay 1: direct staining of human Alzheimer's disease brain sections (fluorescence); format: binding; design: key to Direct staining of tau tangles/Aβ plaques on AD brain sections at 100 μM / Direct staining of tau tangles on AD brain sections at 100 μM / Direct staining of Aβ plaques on AD brain sections at 100 μM / Direct staining of tau tangles on AD brain sections (footnote a: at 250 μM): − (No); +++ (strong); ++ (good); + (weak); settings: tangles; for Direct staining of tau tangles on AD brain sections at 100 μM: 100 μM compound
Summary of the method: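 Frozen […] amygdala sections from Braak V-VI AD donors, PFA-fixed, incubated with compound at 100 μM in 50% ethanol for 20 min at room temperature in the dark. Sudan Black quenched autofluorescence, then staining detected by fluorescence microscopy.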

AD brain-enriched PHF = AD brain-enriched PHF (Homo sapiens, UniProt P10636); experiment: Assay 2 (filter trap): [3H]RefA radio-binding competition assay and Ki on PHF; settings: [^3H]RefA 10 nM, PHF diluted 1/80, compound 0.12 nM to 50 μM
Sequence of AD brain-enriched PHF (P10636 623-708 limits assumed): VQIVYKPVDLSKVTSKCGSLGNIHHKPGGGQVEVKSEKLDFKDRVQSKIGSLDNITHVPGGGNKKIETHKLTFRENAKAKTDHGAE
Experimental: Displacement of [^3H]RefA by Compounds of this Invention
50 g of frontal lobe tissue from post-mortem brain of an Alzheimer's disease (AD) patient were obtained from the London Tissue Bank. The patient was a […] and died […]. The brain sample was collected 5 hours post-mortem and characterized for Braak disease stage (Braak, H.; Braak, E. Acta Neuropathol., 1991, 82, 239-259) as stage VI. For the enrichment of PHF's, around 15 g of the AD human brain was thawed on ice and homogenized with 50 ml of homogenization buffer [0.75 M NaCl in RAB buffer (100 mM 2-(N-morpholino) ethanesulfonic acid (MES), 1 mM EGTA, 0.5 mM MgSO4, 2 mM DTT, pH 6.8) supplemented with protease inhibitors (Complete; Roche 11697498001) in a glass Dounce homogenizer. The homogenate was then incubated at 4° C. for 20 min to let any residual microtubules depolymerize, before the homogenate was transferred into polycarbonate centrifuge bottles (16×76 mm; Beckman 355603) and centrifuged at 11,000 g (12,700 RPM) in an ultracentrifuge (Beckman, XL100K) for 20 min at 4° C. using the pre-cooled 70.1 rotor (Beckman, 342184). Pellets were kept on ice. Supernatants were pooled into polycarbonate bottles and centrifuged again at 100,000 g (38,000 RPM) for 1 h at 4° C. in the 70.1 Ti rotor to isolate PHF-rich pellets, whereas soluble tau remained in the supernatants. The pellets from the first and second centrifugations were re-suspended in 120 mL of extraction buffer [10 mM Tris-HCl pH 7.4, 10% sucrose, 0.85 M NaCl, 1% protease inhibitor (Calbiochem 539131), 1 mM EGTA, 1% phosphatase inhibitor (Sigma P5726 and P0044)]. The solution was then transferred into polycarbonate centrifuge bottles (16×76 mm; Beckman 355603) and centrifuged at 15,000 g (14,800 RPM) in an ultracentrifuge (Beckman, XL100K) for 20 min at 4° C. using the 70.1 Ti rotor. In the presence of 10% sucrose and at low speed centrifugation, most PHF remained in the supernatant whereas intact or fragmented NFTs and larger PHF aggregates were pelleted. The pellets were discarded. 20% Sarkosyl (Sigma L7414-10ML) was added to the supernatants to a final concentration of 1% and stirred at room temperature for 1 h. This solution was then centrifuged into polycarbonate bottles at 100,000 g (38,000 RPM) for 1 h at 4° C. in the 70.1 Ti rotor, and the pellets containing PHF-rich material were re-suspended in a total final volume of 1.5 mL of PBS, aliquoted and stored at −80° C.
[^3H]RefA Radio-Binding Competition Assay
AD brain-enriched PHF diluted 1/80 were incubated in the presence of [^3H]RefA at 10 nM and the example compounds of this invention at 2.5 μM (250× excess), for 45 minutes at 37° C. Samples were then analyzed by on GF/B filter plates as described above (in the section “[^3H]RefA radio-binding assay and determination of the dissociation constant (Kd)). Non-specific signal was determined again with an excess of un-labeled RefA and specific binding calculated by subtracting the non-specific signal from the total signal. Competition was calculated as percent, where 0% was defined as the specific binding in the presence of vehicle (2.8% DMSO in PBS) and 100% as the values obtained in the presence of excess cold RefA. Similar assays were performed to determine the competition of the cold compounds on [^3H]RefA on in vitro aggregated recombinant human tau or Abeta1-42 For both recombinant proteins, 20 μg/mL of aggregates were incubated with 10 nM of [^3H]RefA for recombinant human tau or 80 nM of [^3H]RefA for recombinant human Abeta1-42.
Determination of the Binding Affinity (Ki)
Samples were then analyzed on GF/B filter plates as described above and Ki values calculated using Prism V5 (GraphPad).

Competition on AD brain section Aβ plaques (1 μM Compound B vs 250 μM compound) [1] [%] | Ki (AD brain-enriched PHF) [nM] | SMILES | Direct staining of tau tangles on AD brain sections (footnote a: at 250 μM) ([2]; 250 μM compound) | Direct staining of tau tangles on AD brain sections at 100 μM [2]
0 | 22 | Cn1c2ccncc2c2ccc(Nc3ccc(F)c(F)c3)nc21 [Example 2] | + (tangles)^a | –
6 | 26 | Cn1c2ccncc2c2ccc(Nc3cccc(OCCF)c3)nc21 [Example 8] | – | ++ (tangles)
0 | 7.8 | Cn1c2ccncc2c2ccc(Nc3ccc(OC(F)F)cc3)nc21 [Example 9] | – | ++ (tangles)
